Data taken from PubChem BioAssay AID248 (DTP/NCI, 2004).
“And” between values parts separate entries of the source, which are not always exact repeats. Equal values may be shown once. Toxic doses and inconclusive results are not listed.

Tested on: L1210 leukemia ip in BDF1 mice, survival T/C
Assay: NCI In Vivo Anticancer Drug Screen. Data for tumor model L1210 Leukemia (intraperitoneal) in B6D2F1 (BDF1) mice
Settings: endpoint: mean survival time, higher = longer survival
Summary of the method: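 Tumor cells were implanted, animals were treated, and survival was followed. The result divides the treated measurement by the vehicle-control measurement.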

For `CCCOC1=C(N2CC2)C(=O)C(OCCC)=C(N2CC2)C1=O`, the T/C (dose: 0.23 mg/kg/injection, schedule: Q01DX009 (ip), vehicle: Klucel (hydroxypropylcellulose) (HPC)) was 103 % of control, the T/C (dose: 0.46 mg/kg/injection, schedule: Q01DX009 (ip), vehicle: Klucel (hydroxypropylcellulose) (HPC)) was 107 % of control and the T/C (dose: 0.62 mg/kg/injection, schedule: Q#A X Z (ip), vehicle: alkali diluted with saline) was 113 % of control. The T/C (dose: 0.93 mg/kg/injection, schedule: Q01DX009 (ip), vehicle: Klucel (hydroxypropylcellulose) (HPC)) was 108 % of control, the T/C (dose: 1.25 mg/kg/injection, schedule: Q01DX006 (iv), vehicle: alkali diluted with saline) was 113 % of control and the T/C (dose: 1.25 mg/kg/injection, schedule: Q01DX Z (im), vehicle: alkali diluted with saline) was 113 % of control. The T/C (dose: 1.25 mg/kg/injection, schedule: Q01DX Z (ip), vehicle: alkali diluted with saline) was 104 % of control, the T/C (dose: 1.25 mg/kg/injection, schedule: Q01DX Z (sc), vehicle: alkali diluted with saline) was 113 % of control and the T/C (dose: 1.25 mg/kg/injection, schedule: Q#A X Z (ip), vehicle: alkali diluted with saline) was 121 % of control. For the same compound, the T/C (dose: 1.87 mg/kg/injection, schedule: Q01DX009 (ip), vehicle: Klucel (hydroxypropylcellulose) (HPC)) was 114 % of control, the T/C (dose: 1.87 mg/kg/injection, schedule: Q04DX003 (ip), vehicle: Klucel (hydroxypropylcellulose) (HPC)) was 106 % of control and the T/C (dose: 2.5 mg/kg/injection, schedule: Q01DX006 (iv), vehicle: alkali diluted with saline) was 109 % of control. For the same compound, the T/C (dose: 2.5 mg/kg/injection, schedule: Q01DX Z (im), vehicle: alkali diluted with saline) was 122 % of control, the T/C (dose: 2.5 mg/kg/injection, schedule: Q01DX Z (sc), vehicle: alkali diluted with saline) was 110 % of control and the T/C (dose: 3.0 mg/kg/injection, schedule: Q03DX006 (ip), vehicle: alkali diluted with saline) was 107 % of control. For the same compound, the T/C (dose: 3.75 mg/kg/injection, schedule: Q01DX009 (ip), vehicle: Klucel (hydroxypropylcellulose) (HPC)) was 122 % of control, the T/C (dose: 3.75 mg/kg/injection, schedule: Q04DX003 (ip), vehicle: Klucel (hydroxypropylcellulose) (HPC)) was 118 % of control and the T/C (dose: 5.0 mg/kg/injection, schedule: Q01DX006 (iv), vehicle: alkali diluted with saline) was 122 % of control. For the same compound, the T/C (dose: 5.0 mg/kg/injection, schedule: Q01DX Z (oral), vehicle: alkali diluted with saline) was 113 % of control, the T/C (dose: 5.0 mg/kg/injection, schedule: Q#A X Z (ip), vehicle: alkali diluted with saline) was 158 % of control and the T/C (dose: 7.0 mg/kg/injection, schedule: Q03DX006 (ip), vehicle: alkali diluted with saline) was 115 % of control. The T/C (dose: 10.0 mg/kg/injection, schedule: Q01DX001 (ip), vehicle: alkali diluted with saline) was 112 % of control, the T/C (dose: 10.0 mg/kg/injection, schedule: Q01DX006 (iv), vehicle: alkali diluted with saline) was 115 % of control and the T/C (dose: 10.0 mg/kg/injection, schedule: Q01DX Z (im), vehicle: alkali diluted with saline) was 163 % of control. The T/C (dose: 10.0 mg/kg/injection, schedule: Q01DX Z (oral), vehicle: alkali diluted with saline) was 115 % of control, the T/C (dose: 10.0 mg/kg/injection, schedule: Q07DX003 (ip), vehicle: alkali diluted with saline) was 96 % of control and the T/C (dose: 15.0 mg/kg/injection, schedule: Q03DX006 (ip), vehicle: alkali diluted with saline) was 153 % of control. The T/C (dose: 20.0 mg/kg/injection, schedule: Q01DX001 (ip), vehicle: alkali diluted with saline) was 104 % of control and 115 % of control, the T/C (dose: 20.0 mg/kg/injection, schedule: Q01DX006 (iv), vehicle: alkali diluted with saline) was 103 % of control and the T/C (dose: 20.0 mg/kg/injection, schedule: Q01DX Z (im), vehicle: alkali diluted with saline) was 94 % of control. For the same compound, the T/C (dose: 20.0 mg/kg/injection, schedule: Q01DX Z (sc), vehicle: alkali diluted with saline) was 120 % of control, the T/C (dose: 20.0 mg/kg/injection, schedule: Q07DX003 (ip), vehicle: alkali diluted with saline) was 106 % of control and the T/C (dose: 20.0 mg/kg/injection, schedule: Q#A X Z (ip), vehicle: alkali diluted with saline) was 103 % of control. The T/C (dose: 30.0 mg/kg/injection, schedule: Q03DX006 (ip), vehicle: alkali diluted with saline) was 117 % of control, the T/C (dose: 30.0 mg/kg/injection, schedule: Q04DX003 (ip), vehicle: Klucel (hydroxypropylcellulose) (HPC)) was 102 % of control and the T/C (dose: 40.0 mg/kg/injection, schedule: Q01DX001 (ip), vehicle: alkali diluted with saline) was 118 % of control. The T/C (dose: 40.0 mg/kg/injection, schedule: Q01DX006 (iv), vehicle: alkali diluted with saline) was 123 % of control, the T/C (dose: 40.0 mg/kg/injection, schedule: Q01DX Z (im), vehicle: alkali diluted with saline) was 121 % of control and the T/C (dose: 40.0 mg/kg/injection, schedule: Q01DX Z (ip), vehicle: alkali diluted with saline) was 106 % of control. The T/C (dose: 40.0 mg/kg/injection, schedule: Q01DX Z (sc), vehicle: alkali diluted with saline) was 113 % of control, the T/C (dose: 40.0 mg/kg/injection, schedule: Q07DX003 (ip), vehicle: alkali diluted with saline) was 124 % of control and the T/C (dose: 80.0 mg/kg/injection, schedule: Q01DX001 (ip), vehicle: alkali diluted with saline) was 124 % of control. For the same compound, the T/C (dose: 80.0 mg/kg/injection, schedule: Q01DX Z (oral), vehicle: alkali diluted with saline) was 122 % of control, the T/C (dose: 125.0 mg/kg/injection, schedule: Q01DX001 (ip), vehicle: alkali diluted with saline) was 103 % of control and the T/C (dose: 160.0 mg/kg/injection, schedule: Q01DX001 (ip), vehicle: alkali diluted with saline) was 115 % of control and 121 % of control. The T/C (dose: 160.0 mg/kg/injection, schedule: Q07DX003 (ip), vehicle: alkali diluted with saline) was 111 % of control, the T/C (dose: 320.0 mg/kg/injection, schedule: Q01DX001 (ip), vehicle: alkali diluted with saline) was 107 % of control and 113 % of control and the T/C (dose: 320.0 mg/kg/injection, schedule: Q07DX003 (ip), vehicle: alkali diluted with saline) was 111 % of control. The T/C (dose: 500.0 mg/kg/injection, schedule: Q01DX001 (ip), vehicle: alkali diluted with saline) was 102 % of control, the T/C (dose: 640.0 mg/kg/injection, schedule: Q07DX003 (ip), vehicle: alkali diluted with saline) was 123 % of control and the T/C (dose: 1000.0 mg/kg/injection, schedule: Q01DX001 (ip), vehicle: alkali diluted with saline) was 106 % of control.

In the case of `Nc1nc(S)c(N)c(=S)[nH]1`, the T/C (dose: 9.5 mg/kg/injection, schedule: Q01DX001 (ip), vehicle: carboxymethylcellulose (CMC)) is reported as 105 % of control, the T/C (dose: 19.0 mg/kg/injection, schedule: Q01DX001 (ip), vehicle: carboxymethylcellulose (CMC)) is reported as 94 % of control and the T/C (dose: 38.0 mg/kg/injection, schedule: Q01DX001 (ip), vehicle: carboxymethylcellulose (CMC)) is reported as 97 % of control.

In the case of `O=C1CC[C@H](NC(=O)OCc2ccccc2)C(=O)O1`, the T/C (dose: 100.0 mg/kg/injection, schedule: Q04DX003 (ip), vehicle: saline with Tween-80) is reported as 100 % of control, the T/C (dose: 200.0 mg/kg/injection, schedule: Q04DX003 (ip), vehicle: saline with Tween-80) is reported as 100 % of control and the T/C (dose: 400.0 mg/kg/injection, schedule: Q04DX003 (ip), vehicle: saline with Tween-80) is reported as 97 % of control.

In the case of `CC(=Nc1ccc(NC(=O)c2ccc(C(=O)Nc3ccc(N=C(C)Nc4ccccc4)cc3)cc2)cc1)Nc1ccccc1`, the T/C (dose: 15.0 mg/kg/injection, schedule: Q01DX Z (ip), vehicle: saline) is reported as 93 % of control, the T/C (dose: 30.0 mg/kg/injection, schedule: Q01DX Z (ip), vehicle: saline) is reported as 92 % of control and the T/C (dose: 60.0 mg/kg/injection, schedule: Q01DX Z (ip), vehicle: saline) is reported as 97 % of control. For the same compound, the T/C (dose: 120.0 mg/kg/injection, schedule: Q01DX Z (ip), vehicle: saline) was 93 % of control.

In the case of `C=CC[Se]c1ncnc2c1c(C#N)cn2C1OC(CO)C(O)C1O` (stereo not drawn), the T/C (dose: 6.25 mg/kg/injection, schedule: Q01DX009 (ip), vehicle: saline) is reported as 103 % of control, the T/C (dose: 12.5 mg/kg/injection, schedule: Q01DX009 (ip), vehicle: saline) is reported as 107 % of control and the T/C (dose: 25.0 mg/kg/injection, schedule: Q01DX009 (ip), vehicle: saline) is reported as 92 % of control.

With `Cc1ccc(S(=O)(=O)NC(CCl)=NCc2ccccc2)cc1` the T/C (dose: 100.0 mg/kg/injection, schedule: Q04DX002 (ip), vehicle: Klucel (hydroxypropylcellulose) (HPC)) was 96 % of control, the T/C (dose: 200.0 mg/kg/injection, schedule: Q04DX002 (ip), vehicle: Klucel (hydroxypropylcellulose) (HPC)) was 100 % of control and the T/C (dose: 400.0 mg/kg/injection, schedule: Q04DX002 (ip), vehicle: Klucel (hydroxypropylcellulose) (HPC)) was 114 % of control.

For `O=C1C(N2CCOCC2)=C(c2ccccc2)c2ccccc21`, the T/C (dose: 7.3 mg/kg/injection, schedule: Q01DX009 (ip), vehicle: other) was 94 % of control and 103 % of control, the T/C (dose: 11.0 mg/kg/injection, schedule: Q01DX009 (ip), vehicle: other) was 96 % of control and 100 % of control and the T/C (dose: 12.5 mg/kg/injection, schedule: Q01DX009 (ip), vehicle: other) was 350 % of control. For the same compound, the T/C (dose: 16.5 mg/kg/injection, schedule: Q01DX009 (ip), vehicle: other) was 96 % of control and 100 % of control, the T/C (dose: 37.5 mg/kg/injection, schedule: Q01DX009 (ip), vehicle: other) was 96 % of control and 101 % of control and the T/C (dose: 50.0 mg/kg/injection, schedule: Q01DX009 (ip), vehicle: other) was 98 % of control. For the same compound, the T/C (dose: 100.0 mg/kg/injection, schedule: Q01DX009 (ip), vehicle: other) was 88 % of control and the T/C (dose: 200.0 mg/kg/injection, schedule: Q01DX009 (ip), vehicle: other) was 93 % of control.

In the case of `COc1ccc(Cl)cc1NC(=O)Oc1ccc(Br)cc1Br`, the T/C (dose: 100.0 mg/kg/injection, schedule: Q01DX009 (ip), vehicle: saline with Tween-80) is reported as 94 % of control, the T/C (dose: 200.0 mg/kg/injection, schedule: Q01DX009 (ip), vehicle: saline with Tween-80) is reported as 104 % of control and the T/C (dose: 400.0 mg/kg/injection, schedule: Q01DX009 (ip), vehicle: saline with Tween-80) is reported as 99 % of control.
